Experimental data published in PMC5543150, “Antimalarial troponoids, puberulic acid and viticolins; divergent synthesis and structure-activity relationship studies” (Scientific Reports, 2017).
Converted amounts (≈) assume the structure as drawn. Read-outs that look alike come from different tables or passages of the source.

Legend:
[1] = Cytotoxic assay against MRC-5 cells; settings: human
Protocol: Measurement of cytotoxicity against human fetal lung fibroblast MRC-5 cells was carried out as described previously.
3. […]
(§1) 3-2. Cytotoxic assay against MRC-5 cells
Measurement of cytotoxicity against human fetal lung fibroblast MRC-5 cells
was carried out as described previously4). […]
4) K. Otoguro, H. Ui, A. Ishiyama, N. Arai, M. Kobayashi, Y. Takahashi, R. Masuma,
K. Shiomi, H. Yamada, S. Ōmura, J. Antibiot.

[2] = test system: human fetal lung fibroblast MRC-5 cells; set-up: method as in earlier work; settings: Table S1; natural products and simple troponoids, previously reported; cited from earlier work
[3] = test system: Plasmodium falciparum K1 (chloroquine-resistant) parasite strain; assay: In vitro antimalarial assay (p-LDH, 72 h) against Plasmodium falciparum K1 strain; assay type: cell-based; settings: for IC50: Plasmodium falciparum; for fold better IC50 than those of 7 and 37: relative to 7 and 37
Protocol: Briefly, the P. falciparum K1 strain was cultured in human erythrocytes in RPMI medium supplemented with 10% human plasma at 37 °C, under 93% N2, 4% CO2, and 3% O2. Asynchronous parasites (2% hematocrit and 0.5 or 1% parasitaemia) were seeded in a 96-well microtiter plate and serially diluted test compounds were added. […] After 72-hours incubation, parasite lactate dehydrogenase (p-LDH) was assayed using a slight modification of the procedure reported by Makler et al.[31] and Vivas et al.[32]. The 50% inhibitory concentration (IC50) value was calculated from a dose response curve. This study was approved by “Kitasato Institute Hospital Research Ethics Committee (No12102)” using human erythrocytes donated by volunteers.
3. Biological evaluation of synthesized derivatives
3-1. In vitro cultivation of Plasmodium falciparum and the antimalarial assay In vitro cultivation and antimalarial activity against the Plasmodium falciparum […]
previously1). Briefly, the P. falciparum K1 strain was cultured in human erythrocytes in RPMI medium supplemented with 10% human plasma at 37 °C, under 93% N2, 4% CO2, and 3% O2. Asynchronous parasites (2% hematocrit and 0.5 or 1% parasitaemia) were seeded in a 96-well microtiter plate and serially diluted test compounds were added.
After 72-hours incubation, parasite lactate dehydrogenase (p-LDH) was assayed using a slight modification of the procedure reported by Makler et al2) and Vivas et al3). The 50% inhibitory concentration (IC50) value was calculated from a dose response curve.
This study was approved by “Kitasato Institute Hospital Research Ethics Committee (No12102)” using human erythrocytes donated by volunteers.
as §1
Measurement of cytotoxicity against human fetal lung fibroblast MRC-5 cells was carried out as described previously4).
1) K. Otoguro, A. Kohana, C. Manabe, A. Ishiyama, H. Ui, K. Shiomi, H. Yamada, S. […]
2) M. T. Makler, J. M. Ries, J. A. Williams, J. E. Bancroft, R. C. Piper, B. L. Gibbins, […]
D. J. Hinrichs, Am. J. Med. Hyg. 1993, 48, 739-741.
3) L. Vivas, A. Easton, H. Kendrick, A. Cameron, J.-L. Lavandera, D. Barros, F. G. de las Heras, R. L. Brady, S. L. Croft, Exper. Parasitol. 2005, 111, 105-114.
4) K. Otoguro, H. Ui, A. Ishiyama, N. Arai, M. Kobayashi, Y. Takahashi, R. Masuma, K. Shiomi, H. Yamada, S. Ōmura, J. Antibiot. 2003, 56, 322-324.

[4] = test system: Plasmodium falciparum K1 (chloroquine-resistant) parasite strain; settings: natural products and simple troponoids, previously reported, cited from earlier work; for IC50 Antimalarial activity (K1 strain) / Selectivity index MRC-5/K1: Table S1; for IC50: read-out: IC50, antimalarial activity against Plasmodium falciparum K1 strain
[5] = set-up: method as in PMID 21063422, PMID 24713875; settings: s.c. dose of 5 mg/kg × 2 (day 0 and 1), by day 3; cited from earlier work
[6] = test system: P. berghei; set-up: method as in PMID 21063422, PMID 24713875; settings: 2 mg/kg × 4, subcutaneous (s.c.), 4-day suppressive test; cited from earlier work
[7] = MRC-5 cells (fetal lung fibroblasts), IC50 Cytotoxicity (MRC-5), Table S1, synthesized compounds and positive controls
[8] = MRC-5 cells (fetal lung fibroblasts), IC50 Cytotoxicity (MRC-5), synthesized derivatives
[9] = K1, Table S1, synthesized compounds and positive controls, read-out: IC50 Antimalarial activity (K1 strain)
[10] = K1, synthesized derivatives, in vitro, read-out: IC50 Antimalarial activity (K1 strain)
[11] = Table S1, synthesized compounds and positive controls
[12] = MRC-5 cells (fetal lung fibroblasts), IC50 cytotoxicity (MRC-5)

Row | SMILES | IC50 [1, 7] | IC50 [1, 8] | IC50 [3, 9] | IC50 [3, 10] | Selectivity index MRC-5/K1 [3, 11] | IC50 Antimalarial activity (K1 strain) [4] | IC50 [4] | also measured
1 | O=C(O)c1cc(O)c(O)c(=O)c(O)c1 [Compound 1, puberulic acid] | 4.18 µg/mL | 289000 nM | 0.0087 µg/mL | 44 ± 2.9 nM | 480.46 | 0.01 µg/mL (≈ 0.0505 µM) | 50 nM | IC50 Cytotoxicity (MRC-5) [2]: 57.20 µg/mL (≈ 289 µM); Selectivity index MRC-5/K1 [4]: 5720; toxicity in vivo, mice dying [5]: four out of five; in vivo efficacy, inhibition [6]: 69%
2 | O=C(O)c1cc(O)cc(=O)c(O)c1 [Compound 2, stipitatic acid] |  |  |  |  |  | 7.07 µg/mL (≈ 38.8 µM) |  | IC50 Cytotoxicity (MRC-5) [2]: > 100 µg/mL; Selectivity index MRC-5/K1 [4]: > 14
3 | COc1c(O)cc(C(=O)O)cc(O)c1=O [Compound 3, viticolin A] |  |  |  |  |  | 9.92 µg/mL (≈ 46.8 µM) | 46800 nM | IC50 Cytotoxicity (MRC-5) [2]: > 100 µg/mL; Selectivity index MRC-5/K1 [4]: > 10; melting point: 227 °C
4 | COc1cc(C(=O)O)cc(O)c(OC)c1=O [Compound 4, viticolin B] |  |  |  |  |  | 0.84 µg/mL (≈ 3.71 µM) | 3710 nM | IC50 Cytotoxicity (MRC-5) [2]: 6.79 µg/mL (≈ 30 µM); Selectivity index MRC-5/K1 [4]: 8.08
5 | O=c1cccccc1 [Compound 5, tropone, reference compound] |  |  |  |  |  | > 12.50 µg/mL | > 118000 nM | 
6 | O=c1cccccc1O [Compound 6, tropolone, reference compound] |  |  |  |  |  | 2.74 µg/mL (≈ 22.4 µM) | 22400 nM | 
7 | O=c1c(O)ccccc1O [Compound 7, 7-hydroxytropolone, reference compound] |  |  |  |  |  | 0.89 µg/mL (≈ 6.44 µM) | 6440 nM | IC50 Cytotoxicity (MRC-5) [2]: 0.24 µg/mL (≈ 1.74 µM); fold stronger IC50 value than that of 5 ([3]; K1 strain, relative to tropone (5)): > 18 fold; Selectivity index MRC-5/K1 [4]: 0.27
8 | CC(C)c1cccc(=O)c(O)c1 [Compound 8, hinokitiol, reference compound] |  |  |  |  |  | 4.92 µg/mL (≈ 30 µM) | 30000 nM | IC50 Cytotoxicity (MRC-5) [2]: 5.80 µg/mL (≈ 35.3 µM); Selectivity index MRC-5/K1 [4]: 1.20
9 | CC1(C)Oc2cc(C=O)cc(O)c(=O)c2O1 [Compound 23] |  |  | > 12.5 µg/mL | > 56000 nM |  |  |  | 
10 | CC1(C)Oc2cc(C(=O)O)cc(O)c(=O)c2O1 [Compound 24] |  |  | > 12.5 µg/mL | > 50000 nM |  |  |  | 
11 | COC(=O)c1cc2c(c(OC)c(=O)c1)OC(C)(C)O2 [Compound 25] |  |  | > 12.5 µg/mL | > 47000 nM |  |  |  | 
12 | COC(=O)c1cc2c(c(=O)c(OC)c1)OC(C)(C)O2 [Compound 26] |  |  | > 12.5 µg/mL | > 47000 nM |  |  |  | 
13 | COc1c2c(cc(C(=O)O)cc1=O)OC(C)(C)O2 [Compound 27] |  |  | > 12.5 µg/mL | > 50000 nM |  |  |  | 
14 | COc1cc(C(=O)O)cc2c(c1=O)OC(C)(C)O2 [Compound 28] |  |  | > 12.5 µg/mL | > 50000 nM |  |  |  | 
15 | COc1cc(C(=O)O)cc(O)c(=O)c1O [Compound 29, Iso-viticolin A] | 11.8 µg/mL | 55800 nM | 0.073 µg/mL | 340 ± 22 nM | 162.33 |  |  | fold stronger activity than viticolin A (3) ([3]; K1 strain, relative to viticolin A (3)): approximately 100 fold
16 | O=c1c(O)ccc(CO)cc1O [Compound 37, 4-Hydroxymethyl-7-hydroxytropolone] | 0.00057 µg/mL | 3.4 nM | 0.728 µg/mL | 4330 ± 30 nM | 0.0008 |  |  | IC50 [1, 12]: 3.39 nM; melting point: 144 °C (dec.)
17 | COCc1ccc(O)c(=O)c(O)c1 [Compound 38, 4-Methoxymethyl-7-hydroxytropolone] | 0.00024 µg/mL | 1.3 nM | 0.38 µg/mL | 2090 ± 27 nM | 0.0006 |  |  | IC50 [1, 12]: 1.32 nM; fold better IC50 than those of 7 and 37 ([3]; K1 strain): approximately 2 fold
18 | O=C(O)c1ccc(O)c(=O)c(O)c1 [Compound 40, Iso-stipitatic acid] | 18.6 µg/mL | 102000 nM | 0.387 µg/mL | 2120 ± 110 nM | 47.82 |  |  | fold better IC50 than those of 7 and 37 ([3]; K1 strain): approximately 2 fold
19 | O=c1c(O)cc(CO)cc(O)c1O [Compound 42, 4-Hydroxymethyl-6,7-dihydroxytropolone] | 0.00435 µg/mL | 24 nM | 0.038 µg/mL | 210 ± 3.3 nM | 0.115 |  |  | melting point: 162 °C
20 | COCc1cc(O)c(O)c(=O)c(O)c1 [Compound 43, 4-Methoxymethyl-6,7-dihydroxytropolone] | 0.00181 µg/mL | 91 nM | 0.044 µg/mL | 220 ± 1.6 nM | 0.041 |  |  | melting point: 120 °C
21 | [N-]=[N+]=NCc1cc(O)c(O)c(=O)c(O)c1 [Compound 44, 4-Azidomethyl-6,7-dihydroxytropolone] | 0.00073 µg/mL | 3.5 nM | 0.096 µg/mL | 460 ± 53 nM |  |  |  | 
22 | C[C@@H]1CC[C@H]2[C@@H](C)C(=O)O[C@@H]3O[C@@]4(C)CC[C@@H]1[C@]32OO4 [artemisinin, reference compound] |  |  | 0.0057 µg/mL |  | 7.925 |  |  | IC50 ([1]; IC50 Cytotoxicity (MRC-5)): 45.2 µg/mL
23 | CCN(CC)CCCC(C)Nc1ccnc2cc(Cl)ccc12 (centres unmarked) [chloroquine, reference compound] |  |  |  |  |  |  |  | IC50 [1]: 18.6 µg/mL; IC50 ([3]; K1, read-out: IC50 Antimalarial activity (K1 strain)): 0.18 µg/mL
